From EP0412760A2, “Benzopyran derivatives” (Beecham Group p.l.c., priority 1989, dated 1991) come the findings set out here.

For assay [1], the system named is Spontaneously hypertensive rats. Nature of the assay: Antihypertensive activity: systolic blood pressure by tail cuff method. It counts as in vivo. Conditions: dose of 0.05 mg/kg p.o. As to the method: Systolic blood pressures were recorded by a modification of the tail cuff method described by I.M. Claxton, M.G. Palfreyman, R.H. Poyser, R.L. Whiting, European Journal of Pharmacology, 37, 179 (1976). A W+W BP recorder, model 8005 was used to display pulses. Prior to all measurements rats were placed in a heated environment (33.5 ± 0.5°C) before transfer to a restraining cage. The determination of blood pressure was the mean of 5 readings. Spontaneously hypertensive rats (ages 12-18 weeks) with systolic blood pressures >180 mmHg were considered hypertensive.

In another assay the test system is trachea. Nature of the assay: Bronchodilator activity: relaxation of isolated trachea spirals. It counts as cell-based, guinea pigs. The settings on record: Cavia porcellus; fall in resting tension as percentage of total relaxation evoked by 10⁻³M isoprenaline; guinea pig trachea spirals, Krebs solution at 37°C; read-out: IC₅₀. Here is the method:
Male guinea pigs (300-600g) were stunned by a blow to the head and bled from the carotid artery. The trachea was exposed, dissected free of connective tissue, and transferred to oxygenated Krebs solution at 37 °C. Next, spirals (2 per trachea) were prepared by cutting the whole trachea spirally along its longitudinal axis and then dividing this spiral lengthwise. Each preparation was mounted, using silk thread, in a 10ml organ bath filled with Krebs solution at 37 °C and bubbled with 5% CO₂ with O₂. The resting tension of the preparations was set at 2g and changes in muscle tension were monitored isometrically by means of a UFI (2oz) force and displacement transducer (Ormed Ltd) connected to a Linseis pen recorder. All preparations were allowed to equilibrate for 60 minutes. During this equilibration period the preparations were washed by upward displacement at 15 minute intervals and, if necessary, the resting tension was readjusted to 2g using a mechanical micromanipulator system.
Once a steady resting tension had been obtained, the preparations were dosed simultaneously with the test compound (10⁻⁸-2x10⁻⁵M), and finally a maximum relaxation achieved by addition of 10⁻³M isoprenaline. The fall in tension evoked by the test compound was expressed as a percentage of the total relaxation evoked in the presence of 10⁻³ isoprenaline. […]

Molecules are shown by their SMILES. pIC50: −log10 of the molar value.

For the molecule `CCc1ccc2c(c1)[C@@H](N1CCCCC1=O)[C@H](O)C(C)(C)O2` [compound of formula (I), 3,4-Dihydro-2,2-dimethyl-6-ethyl-4R-(2-oxopiperidin-1-yl)-2H-1-benzopyran-3S-ol], the “maximum fall in blood pressure” value in assay [1] was found to be 19%. The pIC50 with trachea was 6.64.
